Experimental data as given in patent publication US5686486A, “4-hydroxy-benzopyran-2-ones and 4-hydroxy-cycloalkyl[b]pyran-2-ones useful to treat retroviral infections” (priority 1995, dated 1997).
Values joined by “and” are separate entries in the source; they are usually repeats but may differ in a detail not shown here. Equal entries are not always repeated. Where two headings read alike, the source gives them in different places.

What was measured:
HIV-1 protease [1] = molecular target: T1, HIV-1 protease (Human immunodeficiency virus type 1 group M subtype B, UniProt P04585); assay: biochemical; conditions: for inhibition at 0.123 µM: read-out: HIV-1 Protease % Inhib, dose 0.123 uM; for inhibition at 0.37 µM: read-out: HIV-1 Protease % Inhib, dose 0.370 uM; for inhibition at 1.1 µM: read-out: HIV-1 Protease % Inhib, dose 1.100 uM; for inhibition at 3.3 µM: read-out: HIV-1 Protease % Inhib, dose 3.300 uM; for inhibition at 10 µM: read-out: HIV-1 Protease % Inhib, dose 10.000 uM; for inhibition at 30 µM: read-out: HIV-1 Protease % Inhib, dose 30.000 uM; for inhibition at 0.41 µM: read-out: HIV-1 Protease % Inhib, dose 0.410 uM; for inhibition at 1.23 µM: read-out: HIV-1 Protease % Inhib, dose 1.230 uM; for inhibition at 3.7 µM: read-out: HIV-1 Protease % Inhib, dose 3.700 uM; for inhibition at 11 µM: read-out: HIV-1 Protease % Inhib, dose 11.000 uM; for inhibition at 33 µM: read-out: HIV-1 Protease % Inhib, dose 33.000 uM; for inhibition at 100 µM: read-out: HIV-1 Protease % Inhib, dose 100.000 uM
How it was run: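 Biotinylated, FITC-labeled peptide substrate (20 μl of 0.2 μM) incubated with HIV-1 protease (10 μl of 0.1 μM) and compound in 0.1 M sodium acetate pH 5.5, 1.0 M NaCl, 0.05% NP-40, 1 h, room temperature, dark. Streptavidin beads then capture uncleaved substrate; filtered labeled product read by fluorescence, giving percent inhibition.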

HIV-1 protease [2] = molecular target: T1, HIV-1 protease; assay: biochemical
How it was run: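 Ki from two-fold serial inhibitor dilutions (24–48 concentrations) with 40 nM HIV-1 protease stock and 200 μM substrate stock, 90 min at room temperature; stopped with avidin beads. Reference inhibitor run in parallel; Ki by nonlinear least-squares fit.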

## O=c1oc2c(c(O)c1C(c1cccc(NS(=O)(=O)c3ccccc3F)c1)C1CC1)CCCCCC2 (centres unmarked) [Example 281, N-[3-[Cyclopropyl(5,6,7,8,9,10-hexahydro-4-hydroxy-2-oxo-2H-cycloocta[b]pyran-3-yl)methyl]phenyl]-2-fluoro-benzenesulfonamide]
HIV-1 protease [1]
  inhibition at 0.123 µM: 55.5%
  inhibition at 0.37 µM: 93.5%
  inhibition at 1.1 µM: 99.3%
  inhibition at 3.3 µM: 109%
  inhibition at 10 µM: 105%
  inhibition at 30 µM: 101%
HIV-1 protease [2]; read-out: HIV-1 FITC KI
  Ki: 10.6 nM

## CC(C)CC1CCCCc2c1oc(=O)c(C(c1ccccc1)C1CC1)c2O (centres unmarked) [Example 183, 3-(Cyclopropylphenylmethyl)-6,7,8,9-tetrahydro4-hydroxy-9-(2-methylpropyl)-cyclohepta[b]pyran-2(5H)-one]
HIV-1 protease [1]
  inhibition at 0.123 µM: 20.9%
  inhibition at 0.37 µM: 56.5%
  inhibition at 1.1 µM: 85.5%
  inhibition at 3.3 µM: 97.3%
  inhibition at 10 µM: 95.8%
  inhibition at 30 µM: 89.7%
HIV-1 protease [2]; read-out: HIV-1 FITC KI
  Ki: 13 nM

## CC(C)(C)OC(=O)NCCC(=O)Nc1cccc(C(c2c(O)c3ccccc3oc2=O)C2CC2)c1 (centres unmarked) [Example 165, Carbamic acid, [3-[[3-[cyclopropyl(4-hydroxy-2-oxo-2H-1-benzopyran-3-yl)methyl]phenyl]amino]-3-oxopropyl]-, 1,1-dimethylethyl ester]
HIV-1 protease [1]
  inhibition at 0.41 µM: 61.7%
  inhibition at 1.23 µM: 86.7%
  inhibition at 3.7 µM: 98.4%
  inhibition at 11 µM: 106%
  inhibition at 33 µM: 111%
  inhibition at 100 µM: 114%
HIV-1 protease [2]; HIV-1 FITC KI
  Ki: 86 nM

## O=c1oc2c(c(O)c1C1(c3ccccc3)CCC1)CCCCCC2 [Example 483, 3-(Phenylcyclobutyl)-5,6,7,8,9,10-hexahydro-4-hydroxy-2H-cycloocta[b]pyran-2-one]
HIV-1 protease [1]
  inhibition at 0.37 µM: 44.8%
  inhibition at 1.1 µM: 73.2%
  inhibition at 3.3 µM: 85.2%
  inhibition at 10 µM: 69.5%
  inhibition at 30 µM: 76.7%
HIV-1 protease [2]; read-out: HIV-1 FITC KI
  Ki: 33 nM

## O=c1oc2c(c(O)c1C(c1ccccc1)C1CC1)CCCCCC2CC1CCCO1 (single isomer, unassigned) [Example 170, 3-(Cyclopropylphenylmethyl)-5,6,7,8,9,10-hexahydro-4-hydroxy-10-[(tetrahydro-2-furanyl)methyl]-2H-cycloocta[b]pyran-2-one]
HIV-1 protease [1]
  inhibition at 0.123 µM: 23.2%
  inhibition at 0.37 µM: 62.3%
  inhibition at 1.1 µM: 92.5%
  inhibition at 3.3 µM: 99.3%
  inhibition at 10 µM: 107%
  inhibition at 30 µM: 111%
HIV-1 protease [2]; read-out: HIV-1 FITC KI
  Ki: 31 nM

## O=c1oc2c(c(O)c1C(c1cccc(NS(=O)(=O)c3ccc(O)cc3)c1)C1CC1)CCCCCC2 (centres unmarked) [Example 407, N-[3-[Cyclopropyl(5,6,7,8,9,10-hexahydro-4-hydroxy-2-oxo-2H-cycloocta[b]pyran-3-yl)methyl]phenyl]-4-hydroxy-benzenesulfonamide]
HIV-1 protease [1]
  inhibition at 0.123 µM: 26.8%
  inhibition at 0.37 µM: 74.7%
  inhibition at 1.1 µM: 91.2%
  inhibition at 3.3 µM: 98.1%
  inhibition at 10 µM: 107%
  inhibition at 30 µM: 113%
HIV-1 protease [2]; read-out: HIV-1 FITC KI
  Ki: 6.6 nM

## CCc1ccc(S(=O)(=O)Nc2cccc(C(c3c(O)c4c(oc3=O)CCCCCC4)C3CC3)c2)cc1 (centres unmarked) [Example 341, N-[3-[Cyclopropyl(5,6,7,8,9,10-hexahydro-4-hydroxy-2-oxo-2H-cycloocta[b]pyran-3-yl)methyl]phenyl]-4-ethyl-benzenesulfonamide]
HIV-1 protease [1]
  inhibition at 0.123 µM: 59.4%
  inhibition at 0.37 µM: 92.8%
  inhibition at 1.1 µM: 110%
  inhibition at 3.3 µM: 107%
  inhibition at 10 µM: 120%
  inhibition at 30 µM: 122%
HIV-1 protease [2]; read-out: HIV-1 FITC KI
  Ki: 5 nM

## O=c1oc2c(c(O)c1C(c1cccc(NS(=O)(=O)Cc3ccccc3)c1)C1CC1)CCCCCC2 (centres unmarked) [Example 321, N-[3-[Cyclopropyl(5,6,7,8,9,10-hexahydro-4-hydroxy-2-oxo-2H-cycloocta[b]pyran-3-yl)methyl]phenyl]-benzenemethanesulfonamide]
HIV-1 protease [1]
  inhibition at 0.123 µM: 22.2%
  inhibition at 0.37 µM: 62.1%
  inhibition at 1.1 µM: 100%
  inhibition at 3.3 µM: 113%
  inhibition at 10 µM: 119%
  inhibition at 30 µM: 118%
HIV-1 protease [2]; read-out: HIV-1 FITC KI
  Ki: 13.2 nM

## O=c1oc2c(c(O)c1C(c1ccccc1)C1CC1)CCCCC2C(O)C1CC1 (centres unmarked) [Example 195, 9-(Cyclopropylhydroxymethyl)-3-(cyclopropylphenylmethyl)-6,7,8,9-tetrahydro-4-hydroxy-cyclohepta[b]pyran-2(5H)-one]
HIV-1 protease [1]
  inhibition at 0.37 µM: 23.5%
  inhibition at 1.1 µM: 71.4%
  inhibition at 3.3 µM: 90.8%
  inhibition at 10 µM: 108%
  inhibition at 30 µM: 117%
HIV-1 protease [2]; read-out: HIV-1 FITC KI
  Ki: 22 nM

## CCC(c1cccc(NS(=O)(=O)CCN2C(=O)c3ccccc3C2=O)c1)c1c(O)c2ccccc2oc1=O (centres unmarked) [Example 139, 2-(1,3-Dioxo-1,3-dihydro-isoindol-2-yl)-ethanesulfonic acid(3-(1-(4-hydroxy-2-oxo-2H-chromen-3-yl)-propyl)-phenyl)amide]
HIV-1 protease [1]; read-out: HIV-1 Protease % Inhib, dose 1.000 uM
  inhibition at 1 µM: 36.6%
HIV-1 protease [1]
  inhibition at 10 µM: 80.7%
  inhibition at 100 µM: 99.2%
HIV-1 protease [2]; HIV-1 FITC KI
  Ki: 500 nM

## O=c1oc2c(c(O)c1C(c1cccc(NS(=O)(=O)c3ccc(Cl)c(Cl)c3)c1)C1CC1)CCCCCC2 (centres unmarked) [Example 269, 3,4-Dichloro-N-[3-[cyclopropyl(5,6,7,8,9,10-hexahydro-4-hydroxy-2-oxo-2H-cycloocta[b]pyran-3-yl)methyl]phenyl]-benzenesulfonamide]
HIV-1 protease [1]
  inhibition at 0.123 µM: 77.1%
  inhibition at 0.37 µM: 95.7%
  inhibition at 1.1 µM: 112%
  inhibition at 3.3 µM: 114%
  inhibition at 10 µM: 125%
  inhibition at 30 µM: 114%
HIV-1 protease [2]; read-out: HIV-1 FITC KI
  Ki: 5.3 nM and 2.9 nM

## CCCC(c1cccc(NS(=O)(=O)c2cccnc2)c1)c1c(O)c2c(oc1=O)CCCCCC2 (centres unmarked) [Example 433, 3-Pyridinesulfonamide, N-[3-[1-(5,6,7,8,9,10-hexahydro-4-hydroxy-2-oxo-2H-cycloocta[b]pyran-3-yl)butyl]phenyl]-]
HIV-1 protease [1]
  inhibition at 0.123 µM: 103%
  inhibition at 0.37 µM: 109%
  inhibition at 1.1 µM: 104%
  inhibition at 3.3 µM: 104%
  inhibition at 10 µM: 109%
  inhibition at 30 µM: 108%
HIV-1 protease [2]; read-out: HIV-1 FITC KI
  Ki: 2.24 nM

## CC(C)CC(c1cccc(NS(=O)(=O)c2cn(C)cn2)c1)c1c(O)c2c(oc1=O)CCCCCC2 (centres unmarked) [Example 427, 1H-Imidazole-4-sulfonamide, N-[3-[1-(5,6,7,8,9,10-hexahydro-4-hydroxy-2-oxo-2H-cycloocta[b]pyran-3-yl)-3-methylbutyl]phenyl]-1-methyl-]
HIV-1 protease [1]
  inhibition at 0.123 µM: 94.2%
  inhibition at 0.37 µM: 92.8%
  inhibition at 1.1 µM: 91.2%
  inhibition at 3.3 µM: 90%
  inhibition at 10 µM: 89.6%
  inhibition at 30 µM: 81.9%
HIV-1 protease [2]; read-out: HIV-1 FITC KI
  Ki: 0.65 nM

## CN(C)c1ccc(S(=O)(=O)Nc2cccc(C(c3c(O)c4c(oc3=O)CCCCCC4)C3CC3)c2)cc1 (centres unmarked) [Example 352, N-[3-[Cyclopropyl(5,6,7,8,9,10-hexahydro-4-hydroxy-2-oxo-2H-cycloocta[b]pyran-3-yl)methyl]phenyl]-4-(dimethylamino)-benzenesulfonamide]
HIV-1 protease [1]
  inhibition at 0.123 µM: 49.7%
  inhibition at 0.37 µM: 78.5%
  inhibition at 1.1 µM: 97.9%
  inhibition at 3.3 µM: 104%
  inhibition at 10 µM: 102%
  inhibition at 30 µM: 94.6%
HIV-1 protease [2]; read-out: HIV-1 FITC KI
  Ki: 2.84 nM

## O=c1oc2c(c(O)c1C(c1ccccc1)C1CC1)CCCCCC2CC1CCCOC1 (centres unmarked) [Example 179, 3-(Cyclopropylphenylmethyl)-5,6,7,8,9,10-hexahydro-4-hydroxy-10-[(tetrahydro-2H-pyran-3-yl)methyl]-2H-cycloocta[b]pyran-2-one]
HIV-1 protease [1]
  inhibition at 0.37 µM: 38.6%
  inhibition at 1.1 µM: 71.6%
  inhibition at 3.3 µM: 87.2%
  inhibition at 10 µM: 93.7%
  inhibition at 30 µM: 91.1%
HIV-1 protease [2]; read-out: HIV-1 FITC KI
  Ki: 19 nM

## CCC(c1ccccc1)c1c(O)c2c(oc1=O)C(C)CCCCC2 (centres unmarked) [Example 126, 4-Hydroxy-10-methyl-3-(1-phenyl-propyl)-5,6,7,8,9,10-hexahydro-cycloocta[b]pyran-2-one]
HIV-1 protease [1]
  inhibition at 0.41 µM: 25.9%
  inhibition at 1.23 µM: 59%
  inhibition at 3.7 µM: 89.8%
  inhibition at 11 µM: 96.7%
  inhibition at 33 µM: 100%
  inhibition at 100 µM: 95%
HIV-1 protease [2]; read-out: HIV-1 FITC KI
  Ki: 331 nM

## CN1CCN(S(=O)(=O)Nc2cccc(C(c3c(O)c4c(oc3=O)CCCCCC4)C3CC3)c2)CC1 (centres unmarked) [Example 399, N-[3-[Cyclopropyl(5,6,7,8,9,10-hexahydro-4-hydroxy-2-oxo-2H-cycloocta[b]pyran-3-yl)methyl]phenyl]4-methyl-1-piperazinesulfonamide]
HIV-1 protease [1]
  inhibition at 0.37 µM: 21.6%
  inhibition at 1.1 µM: 54.1%
HIV-1 protease [2]; read-out: HIV-1 FITC KI
  Ki: 186 nM

## O=C(CCn1ccc2ccccc21)Nc1cccc(C(c2c(O)c3ccccc3oc2=O)C2CC2)c1 (stereo not drawn) [Example 168, Coumarin, 4-hydroxy-3-(α-(3-((3-(1H-indol-1-yl)-1-oxopropyl)amino)phenyl)cyclopropylmethyl)]
HIV-1 protease [1]
  inhibition at 0.37 µM: 12.4%
  inhibition at 1.1 µM: 46.4%
  inhibition at 3.3 µM: 74.9%
  inhibition at 10 µM: 94.7%
  inhibition at 30 µM: 107%
HIV-1 protease [2]; HIV-1 FITC KI
  Ki: 135 nM

## CCCC1CCCCCc2c1oc(=O)c(C(c1ccccc1)C1CC1)c2O (centres unmarked) [Example 128, 3-(Cyclopropyl-phenyl-methyl)-4-hydroxy-10-propyl-5,6,7,8,9,10-hexahydro-cycloocta[b]pyran-2-one]
HIV-1 protease [1]
  inhibition at 0.123 µM: 32.5%
  inhibition at 0.37 µM: 85.6%
  inhibition at 1.1 µM: 102%
  inhibition at 3.3 µM: 112%
  inhibition at 10 µM: 107%
  inhibition at 30 µM: 102%
HIV-1 protease [2]; read-out: HIV-1 FITC KI
  Ki: 26 nM
